Laboratory results taken from article PMC8920379, “The discovery of berberine erythrocyte-hemoglobin self-assembly delivery system: a neglected carrier underlying its pharmacokinetics” (Drug Delivery, 2022).

Assays:
[1] = Hemolysis rate; format: cell-based, rats; conditions: rat, washed rat erythrocytes, 2% hematocrit suspension, 2% erythrocytes, 37 °C
Procedure: (§1) The whole blood was collected from rats by orbital plexus vein and transferred into a blood-collection tube containing ethylene diamine tetraacetic acid (EDTA) as an anticoagulant. The whole blood was centrifuged at 3000 rpm for 10 min. The plasma and the buffy coat in the supernatant were removed by aspiration, and erythrocytes were washed three times in cold phosphate buffer saline (PBS) and centrifuged for 10 min at 3000 rpm, and then resuspended in an appropriate volume of PBS.
(§2) The hematocrite of washed erythrocytes was adjusted by PBS to 2%. In 5-mL Eppendorf tubes, 1 mL of 2% erythrocytes was incubated with 1 mL of different concentrations of BBR hydrochloride at 37 °C for 2 h. The final concentrations of BBR hydrochloride in reaction system were 0.125, 0.250, 0.500, 1.000, 1.333, 1.500, 1.600 mg/mL, respectively. One mL of 2% erythrocytes incubated with 1 mL saline solution served as the […] group while 1 mL 2% erythrocytes incubated with 1 mL distilled water served as the […] one. After incubation, the erythrocytes suspension was centrifuged at 3000 rpm for 10 min. Then 150 μL supernatant was added to the 96-well plate. Three parallel wells were set for each group, and the absorbance at 545 nm of each sample well was measured by a microplate reader. The imaging system was employed to observe whether BBR induced hemolysis. The hemolysis rate was calculated according to the following formula: Hemolysis rate (%) = [(ODsample−ODnegative)/(ODpositive −ODnegative)] ×100%

[2] = system: 2% erythrocytes; experiment: Hemolysis rate; format: cell-based, rats; conditions: 37 °C, 2 h
Procedure: as §1, §2

[3] = target: T1, bovine hemoglobin (BHB) (Bos taurus, UniProt P01966+P02070); experiment: Circular dichroism of BHB-BBR systems; format: binding; conditions: CD, BHB:BBR molar ratios up to 1:8, reduced from 36.87% for BHB alone, pH 7.4, 298 K
T1 construct: purchased Sigma Aldrich
Procedure: In addition, CD spectra were collected from 200 to 260 nm with three scans averaged for each CD spectrum. The molar ratio (1:1) of BHB: BBR was used for the measurement. Briefly, BHB and BBR were dissolved in Tris-HCl (pH 7.4), and the solutions were freeze-dried into powder. Raman spectra were measured from 2600 to 400 cm^−1 using the Nd-YAG laser (1064 nm). Due to the existence of inner filter effects, the fluorescence parameter was corrected using the equation: F=F0×10^(AEX+AEM/2) where F and F0 are the fluorescence intensity corrected and observed, respectively; AEX and AEM are the sums of the absorbance of samples at excitation and emission wavelengths (Chen et al., [2021]).
In this work, the molar ratios of 1:0, 1:2, 1:4 and 1:8 for BHB: BBR were utilized for the CD records. […] Besides, the helix of α chain can be calculated following the below equation: α−Helix(%)=−MRE208−4000/33000−4000×100 where MRE208 is the observed MRE value at 208 nm, 4000 is the MRE value of β-form and random coil conformation cross at 208 nm, and 33,000 is the MRE value of pure α-helix at 208 nm (Shobini et al., [2001]).

[4] = design: method as in Liu et al., 2010; Chen et al., 2011; conditions: ref Liu et al., 2010; Chen et al., 2011; cited from earlier work

T1 sequence (P01966 2-142 limits assumed): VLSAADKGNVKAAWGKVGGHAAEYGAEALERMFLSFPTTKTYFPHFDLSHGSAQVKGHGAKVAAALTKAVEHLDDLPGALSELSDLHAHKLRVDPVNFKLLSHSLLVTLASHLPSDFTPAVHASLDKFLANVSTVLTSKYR
T1 sequence (P02070 whole entry): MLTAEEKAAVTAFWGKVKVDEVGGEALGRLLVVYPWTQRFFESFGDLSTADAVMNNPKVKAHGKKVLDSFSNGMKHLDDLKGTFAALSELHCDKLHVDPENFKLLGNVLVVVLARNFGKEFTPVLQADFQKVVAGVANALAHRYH

## COc1ccc2cc3[n+](cc2c1OC)CCc1cc2c(cc1-3)OCO2 [BBR, Berberine]
[1]; BBR 1.50 mg/mL
  hemolysis at 2 h, 1.5 mg/mL: 58.2%
[1]; BBR 1.60 mg/mL
  hemolysis at 2 h, 1.6 mg/mL: 89.7%
[2]; BBR 1.00 mg/mL
  hemolysis of the BBR-erythrocyte system: relatively stable without hemolysis
[2]; BBR concentration below 1.00 mg/mL
  hemolysis of the erythrocyte: no hemolysis
[3]
  α-helicity of BHB after addition of BBR: 33.53%
[4]
  oral bioavailability: less than 1%
